A short description of data set [1]: Antiplatelet activity in human platelet-rich plasma assessed as inhibition of collagen-induced platelet aggregation at 30 uM treated for 5 mins prior to collagen challenge for 5 mins by turbidimetric method. The format is functional.
A short description of data set [2]: (§1) Antiplatelet activity in human platelet-rich plasma assessed as inhibition of collagen-induced platelet aggregation treated for 5 mins prior to collagen challenge for 5 mins by turbidimetric method. The format is functional, cell-free. Particulars: for IC50: Homo sapiens, Platelet, Plasma.
The test system of data set [3] is Platelet. In words: Antiplatelet activity in human platelet-rich plasma assessed as inhibition of ADP-induced platelet aggregation treated for 5 mins prior to ADP challenge for 5 mins by turbidimetric method. It counts as functional, cell-free.
In data set [4] the test system is Platelet. In words: Antiplatelet activity in human platelet-rich plasma assessed as inhibition of TRAP-induced platelet aggregation treated for 5 mins prior to TRAP challenge for 5 mins by turbidimetric method. It counts as functional, cell-free.
For data set [5], the system named is Platelet. Briefly: Antiplatelet activity in human platelet-rich plasma assessed as inhibition of ristocetin-induced platelet aggregation treated for 5 mins prior to ristocetin challenge for 5 mins by turbidimetric method. It counts as functional, cell-free.
Data set [6] deals with Mus musculus. Briefly: Antithrombotic activity in mouse assessed as protection against collagen-epinephrine-induced pulmonary thromboembolism at 30 uM/kg, po administered 60 mins prior to thrombotic challenge. It counts as functional.
Data set [7] relates to Mus musculus. Briefly: Antithrombotic activity in mouse assessed as protection against collagen-epinephrine-induced pulmonary thromboembolism at 30 uM/kg, po administered 60 mins prior to thrombotic challenge measured for up to 18 hrs post-drug dose. It counts as functional, organism-based.
The test system of data set [8] is Mus musculus. Briefly: Antithrombotic activity in mouse assessed as protection against collagen-epinephrine-induced pulmonary thromboembolism at 30 uM/kg, po administered 60 mins prior to thrombotic challenge measured at >18 hrs post-drug dose. The format is functional, organism-based.
Data set [9] deals with Mus musculus. Briefly: Prolongation of bleeding time in mouse at 30 uM/kg, po administered as single dose by tail excision method. It counts as ADME, organism-based. As to conditions: in vivo.
Data set [10] deals with Mus musculus. In words: Prolongation of bleeding time in mouse at 30 uM/kg, po administered as single dose by tail excision method relative to control. It counts as ADME, organism-based. As to conditions: in vivo.
Data set [11] can be described thus: Antiplatelet activity in human platelet-rich plasma assessed as inhibition of arachidonic acid-induced platelet aggregation treated for 5 mins prior to arachidonic acid challenge for 5 mins by turbidimetric method. It counts as functional, cell-free. Particulars: for IC50: Homo sapiens, Platelet, Plasma.
Data set [12] is described as follows: (§2) Antiplatelet activity in human platelet-rich plasma assessed as inhibition of U46619-induced platelet aggregation treated for 5 mins prior to U46619 challenge for 5 mins by turbidimetric method. It counts as functional, cell-free. Particulars: for IC50: Homo sapiens, Platelet, Plasma.
Data set [13] can be described thus: Antiplatelet activity in human platelet-rich plasma assessed as inhibition of collagen-induced platelet aggregation at 10 uM treated for 5 mins prior to collagen challenge for 5 mins by turbidimetric method. The format is functional.
The test system of data set [14] is Platelet. In words: Antiplatelet activity in human platelet-rich plasma assessed as inhibition of convulxin-induced platelet aggregation treated for 5 mins prior to convulxin challenge for 5 mins by turbidimetric method. The format is functional, cell-free.
Data set [15] relates to Platelet. Briefly: Antiplatelet activity in human platelet-rich plasma assessed as inhibition of CRP-XL-induced platelet aggregation up to 500 uM treated for 5 mins prior to CRP-XL challenge for 5 mins by turbidimetric method. The format is functional, cell-free.
For data set [16], the system named is Mus musculus. In words: Antithrombotic activity in mouse assessed as protection against collagen-epinephrine-induced pulmonary thromboembolism at 30 uM/kg, po administered 60 mins prior to thrombotic challenge measured for more than 24 hrs post-drug dose. It counts as functional, organism-based.
Data set [17] deals with Mus musculus. In words: Antithrombotic activity in mouse assessed as protection against collagen-epinephrine-induced pulmonary thromboembolism at 170 uM/kg, po administered 60 mins prior to thrombotic challenge. The format is functional.
Data set [18] relates to Mus musculus. In words: Antithrombotic activity in mouse assessed as protection against collagen-epinephrine-induced pulmonary thromboembolism at 170 uM/kg, po administered 60 mins prior to thrombotic challenge measured for up to 5 hrs post-drug dose. The format is functional, organism-based.
The test system of data set [19] is Mus musculus. In words: Prolongation of bleeding time in mouse at 170 uM/kg, po administered as single dose by tail excision method relative to control. The format is ADME, organism-based. As to conditions: in vivo.
The subject of data set [20] is Mus musculus. In words: Antithrombotic activity in mouse assessed as protection against collagen-epinephrine-induced pulmonary thromboembolism at 30 uM/kg, po administered 60 mins prior to thrombotic challenge measured for up to 12 hrs post-drug dose. The format is functional, organism-based.
Data set [21] concerns Platelet. The description is as §1. The format is functional, cell-free.
Data set [22] concerns Platelet. The data set is described as §2. The format is functional, cell-free.

Active and inactive are the calls of the source. The rule behind the calls is not given here.

One may read the inhibition as the relative decrease from the control value, in per cent. Broadly, the IC50 is the concentration at which inhibition is half-maximal. On to `Cc1ccc(CN2C(=O)CC[C@H]2C(=O)N2CCCC(CNC(=O)OC(C)(C)C)C2)cc1` (mixture of isomers), for which the inhibition at 30 µM in data set [1] came out at 77.3%. Further, the 50% inhibitory concentration (IC50) in data set [2] turned out to be 16 µM. Also, the inhibition result in the data set with Platelet [3], with Platelet [4] and in the data set on Platelet [5] was “inactive” in each case. The Activity with Mus musculus [6] was determined as 60%; in the data set on Mus musculus [9], 50%. In addition, the outcome in the data set on Mus musculus [7] was Active. For the same compound, the result in the data set with Mus musculus [8] was inactive. Moreover, in the data set with Mus musculus [10], the “fold change (FC)” value is 1.5.

For `Cc1ccc(CN2CSC[C@H]2C(=O)N2CCC[C@H](CNC(=O)OC(C)(C)C)C2)cc1`, the “inhibition (INH)” value turned out to be 87% in [2], 93% in data set [11] and 100% in [12]. In addition, the half-inhibitory concentration (IC50) in data set [2] was 3.3 µM; in data set [11] it was 6 µM; in data set [12], 2.7 µM. Moreover, the inhibition result in the data set with Platelet [3], in the data set on Platelet [4] and in the data set on Platelet [5] was “inactive” in each case. The Activity turned out to be 60% in the data set with Mus musculus [6] and 72% in the data set with Mus musculus [9].

As for `Cc1ccc(CN2C(=O)CC[C@H]2C(=O)N2CCC[C@@H](CNC(=O)OC(C)(C)C)C2)cc1`, in data set [13], the inhibition at 10 µM is 49%. In addition, in data set [2], the IC50 came out at 6.6 µM. For the same compound, the inhibition result in the data set on Platelet [3], in the data set with Platelet [4], in the data set on Platelet [5] and in the data set with Platelet [14] was “inactive” each time. For the same compound, in the data set on Platelet [15], the inhibition result is “Active”. In addition, the Activity in the data set with Mus musculus [6] was 60%. Further, in the data set on Mus musculus [16], the outcome was Active.

For the compound `CC(=O)Oc1ccccc1C(=O)O` [ASPIRIN], in data set [11], the IC50 was 5 µM. Besides, the Activity with Mus musculus [17] was 40%. Besides, in the data set on Mus musculus [18], the outcome was Active. Besides, in the data set on Mus musculus [19], the “fold change (FC)” value is 2.2.

Turning to `Cc1ccc(CN2C(=O)CC[C@H]2C(=O)N2CCC[C@H](CNC(=O)OC(C)(C)C)C2)cc1`, the inhibition at 10 µM in data set [13] stood at 30%. Also, the IC50 in data set [2] worked out at 37 µM. Further, the inhibition entry in the data set with Platelet [3], in the data set on Platelet [4] and in the data set on Platelet [5] was “inactive” throughout. Further, the Activity in the data set with Mus musculus [6] is on record as 50%. The result in the data set on Mus musculus [20] was Active.

On to `Cc1ccc(CN2C(=O)SC[C@H]2C(=O)N2CCC[C@H](CNC(=O)OC(C)(C)C)C2)cc1`, for which the “inhibition (INH)” value turned out to be 83% in data set [2], 8% in data set [11] and 64% in data set [12]. Besides, the values for the IC50 in data set [2], in data set [11] and in [12] were 6 µM, above 100 µM and 10.2 µM, respectively. The inhibition result in the data set on Platelet [21] and with Platelet [22] was “Dose-dependent effect” in each case. Besides, the inhibition result in the data set on Platelet [3], in the data set on Platelet [4] and in the data set with Platelet [5] was “inactive” in each case. For the same compound, the Activity in the data set on Mus musculus [6] and with Mus musculus [9] was 50% throughout.

Take `Cc1ccc(CN2CSC[C@H]2C(=O)N2CCC[C@@H](CNC(=O)OC(C)(C)C)C2)cc1`: the “inhibition (INH)” value is reported as 74% in data set [2], 25% in [11] and 96% in data set [12]. Further, the IC50 is 8 µM in [2], above 100 µM in data set [11] and 4.7 µM in data set [12]. Besides, the inhibition entry with Platelet [21] and with Platelet [22] was “Dose-dependent effect” in each case. The inhibition entry in the data set on Platelet [3], in the data set with Platelet [4] and in the data set on Platelet [5] was “inactive” in each case. The Activity with Mus musculus [6] and with Mus musculus [9] was 50% in each case.

Regarding `Cc1ccc(CN2C(=O)SC[C@H]2C(=O)N2CCC[C@@H](CNC(=O)OC(C)(C)C)C2)cc1`, the “inhibition (INH)” value turned out to be 81% in [2], 15% in data set [11] and 75% in data set [12]. The values for the IC50 in data set [2], in data set [11] and in data set [12] were 6.4 µM, above 100 µM and 6.4 µM, respectively. For the same compound, the inhibition result in the data set with Platelet [21] and in the data set with Platelet [22] was “Dose-dependent effect” each time. The inhibition entry in the data set with Platelet [3], in the data set with Platelet [4] and with Platelet [5] was “inactive” each time. In addition, the Activity with Mus musculus [6] amounted to 40%; in the data set on Mus musculus [9], 43%.

As to `CC(C)(C)OC(=O)NCC1CCCN(C(=O)[C@@H]2CCC(=O)N2Cc2ccccc2Cl)C1` (mixture of isomers), the inhibition at 30 µM in [1] was 15%. For the same compound, the Activity with Mus musculus [6] came to 70%; in the data set on Mus musculus [9], 60%.

(Values after ChEMBL document CHEMBL3259687, “Synthesis and identification of chiral aminomethylpiperidine carboxamides as inhibitor of collagen induced platelet activation” (Eur J Med Chem, 2014).)
